From patent US7262296B2 (priority 2002, dated 2007)

Tested on: tip of the tongue of the volunteers
Conditions: human, in vivo

Compound	Pungency index
3-(4-allyloxy phenyl)-2E-propenoic acid morpholine amide [viii]	10^4
3-[(2H)-2,2-dimethyl-3,4-dihydro-benzopyran-6yl]-2E-propenoic acid morpholine amide [ix]	10^6
O=C(/C=C/C=C/c1ccc2c(c1)OCO2)N1CCCCC1 [A, reference compound]	10^4
COc1ccc(/C=C/C=C/C(=O)N2CCOCC2)cc1 [i, 5-(4-methoxyphenyl)-2E, 4E-pentadienoic acid morpholine amide]	10^6
CC(C)Oc1ccc(/C=C/C=C/C(=O)N2CCOCC2)cc1 [ii, 5-(4-isopropyloxyphenyl)-2E, 4E-pentadienoic acid morpholine amide]	10^7
CC1(C)CCc2cc(/C=C/C=C/C(=O)N3CCOCC3)ccc2O1 [iii, 5-(2H)-2,2-dimethyl-3,4-dihydro-benzopyran-6yl-2E, 4E-pentadienoic acid morpholine amide]	10^4
O=C(/C=C/C=C/c1ccc2c(c1)OCCO2)N1CCOCC1 [iv, 5-(3,4-ethylenedioxyphenyl)-2E, 4E-pentadienoic acid morpholine amide]	10^4
COc1ccc(/C=C/C(=O)N2CCOCC2)cc1 [v, 3-(4-methoxyphenyl)-2E-propenoic acid morpholine amide]	10^5
CC(C)Oc1ccc(/C=C/C(=O)N2CCOCC2)cc1 [vi, 3-(4-isopropyloxyphenyl)-2E-propenoic acid morpholine amide]	10^6
CCCCOc1ccc(/C=C/C(=O)N2CCOCC2)cc1 [vii, 3-(4-butyloxyphenyl)-2E-propenoic acid morpholine amide]	10^7
O=C(/C=C/c1ccc2c(c1)OCCO2)N1CCOCC1 [x, 3-(3,4-ethylenedioxyphenyl)-2E-propenoic acid morpholine amide]	10^4

Tested on: hepatic drug metabolizing enzymes
Conditions: rat, in vivo; cited from earlier work

Compound	effect on hepatic drug metabolizing enzymes
O=C(/C=C/C=C/c1ccc2c(c1)OCO2)N1CCCCC1 [piperine]	inhibiting their activity

Tested on: tongue
Conditions: in vivo; cited from earlier work

Compound	heat units (pungency)
COc1cc(CNC(=O)CCCC/C=C/C(C)C)ccc1O [capsaicin]	10^7 units
